Data as given in patent publication US4138554A, “7-[D-α-(4-Hydroxy-1,5-naphthyridine-3-carboxamido)-α-phenyl (and p-hydroxyphenyl)acetamido]-3-carbamoyloxymethyl-3-cephem-4-carboxylic acids” (priority 1977, dated 1979).
Like-named read-outs stand apart in the source and are kept apart here.

Tests used:
Type in all cases: cell-based
S. marcescens = assay: MIC by serial two-fold agar dilution (Mueller-Hinton agar), S. marcescens; settings: Serratia marcescens; S. marcescens A20019, Table 6; read-out: MIC
Protocol: (§1) Minimum inhibitory concentrations (MIC) of BB-S520 were determined by serial two-fold agar dilution method using Steers' apparatus on Meuller-Hinton agar plate against 31 test organisms for the primary screening and also against 61 strains of Pseudomonas aeruginosa for the secondary evaluation. The results are shown in Table 1 and Table 2 along with those of BB-S514 and sulbenicillin.
(§2) Minimum inhibitory concentrations (MIC) of cephalosporins in the present study were determined by serial two-fold agar dilution method using Steers' apparatus on Mueller-Hinton agar plate against 31 test organisms for the primary screening and also against 61 strains of Pseudomonas aeruginosa for the secondary evaluation.

Klebsiella sp. = assay: MIC by serial two-fold agar dilution (Mueller-Hinton agar), Klebsiella sp.; settings: Klebsiella sp. A20452, Table 6; read-out: MIC
Protocol: as §1, §2

P. morganii = assay: MIC by serial two-fold agar dilution (Mueller-Hinton agar), P. morganii; settings: Morganella morganii; P. morganii A9553, Table 6; read-out: MIC
Protocol: as §1, §2

Pseudomonas sp. = assay: MIC by serial two-fold agar dilution (Mueller-Hinton agar), Pseudomonas sp.; settings: Pseudomonas sp. A20358, Table 6
Protocol: as §2

P. aeruginosa = assay: MIC by serial two-fold agar dilution (Mueller-Hinton agar), P. aeruginosa, primary screening
Protocol: as §1, §2

S. aureus = assay: MIC by serial two-fold agar dilution (Mueller-Hinton agar), S. aureus; settings: Staphylococcus aureus
Protocol: as §1, §2

K. pneumoniae = assay: MIC by serial two-fold agar dilution (Mueller-Hinton agar), K. pneumoniae; settings: Klebsiella pneumoniae, K. pneumoniae A9977, Table 6
Protocol: as §1, §2

P. vulgaris = assay: MIC by serial two-fold agar dilution (Mueller-Hinton agar), P. vulgaris; settings: Proteus vulgaris; P. vulgaris A9539, Table 6; read-out: MIC
Protocol: as §1, §2

E. cloacae = assay: MIC by serial two-fold agar dilution (Mueller-Hinton agar), E. cloacae; settings: Enterobacter cloacae
Protocol: as §1, §2

P. mirabilis = assay: MIC by serial two-fold agar dilution (Mueller-Hinton agar), P. mirabilis; settings: Proteus mirabilis; P. mirabilis A9900, Table 6; read-out: MIC
Protocol: as §1, §2

E. coli = assay: MIC by serial two-fold agar dilution (Mueller-Hinton agar), E. coli; settings: Escherichia coli, read-out: MIC
Protocol: as §1, §2

S. enteritidis = assay: MIC by serial two-fold agar dilution (Mueller-Hinton agar), S. enteritidis; settings: Salmonella enterica; S. enteritidis A9531, Table 6; read-out: MIC
Protocol: as §1, §2

Pseudomonas aeruginosa = assay: MIC by agar dilution against 61 strains of Pseudomonas aeruginosa, secondary evaluation; settings: for MIC: Pseudomonas aeruginosa
Protocol: as §1, §2

CC1(C)S[C@@H]2[C@H](NC(=O)C(C(=O)O)c3ccccc3)C(=O)N2[C@H]1C(=O)O (stereo partly shown) [Carbenicillin]
> 100 µg/mL: MIC (P. morganii) | MIC (E. coli; E. coli A20366, Table 6) | MIC (E. coli; E. coli A20898, Table 6)
0.2 µg/mL: MIC (S. aureus; S. aureus Smith A9537, Table 6, read-out: MIC) | MIC (E. coli; E. coli A9844, Table 6)
6.3 µg/mL: MIC (Klebsiella sp.) | MIC (Pseudomonas sp.) | MIC (S. aureus; S. aureus Smith A20240, Table 6, read-out: MIC) | MIC (E. coli; E. coli A9435, Table 6)
0.4 µg/mL: MIC (P. mirabilis) | MIC (E. coli; E. coli NIHJ, Table 6)
100 µg/mL: MIC (P. aeruginosa; Pseudomonas aeruginosa, P. aeruginosa A20717, Table 6, read-out: MIC) | MIC (E. coli; E. coli A20732, Table 6)
0.8 µg/mL: MIC (E. coli; E. coli A10664, Table 6) | MIC (S. enteritidis)
12.5 µg/mL: MIC (P. aeruginosa; P. aeruginosa A20229, Table 6) | MIC (P. aeruginosa; Pseudomonas aeruginosa) | MIC (E. cloacae; E. cloacae A9657, Table 6)
3.1 µg/mL: MIC (S. marcescens) | MIC (S. aureus; S. aureus BX-1633 A9606, Table 6, read-out: MIC) | MIC (S. aureus; S. aureus Smith A20239, Table 6, read-out: MIC) | MIC (K. pneumoniae) | MIC (P. vulgaris) | MIC (E. cloacae; E. cloacae A9656, Table 6) | MIC (E. cloacae; E. cloacae A9659, Table 6) | MIC (E. coli; E. coli A20520, Table 6)
25 µg/mL: MIC (P. aeruginosa; Pseudomonas aeruginosa, P. aeruginosa A9843, Table 6, read-out: MIC) | MIC (P. aeruginosa; Pseudomonas aeruginosa, P. aeruginosa A9930, Table 6, read-out: MIC) | MIC (S. aureus; S. aureus Smith A15907, Table 6) | MIC (S. aureus; S. aureus Smith A20701, Table 6, read-out: MIC)
1.6 µg/mL: MIC (E. coli; E. coli Juhl A15119, Table 6)

CCN1CCN(C(=O)NC(C(=O)N[C@@H]2C(=O)N3[C@@H]2SC(C)(C)[C@@H]3C(=O)O)c2ccccc2)C(=O)C1=O (stereo partly shown) [T-1220]
1.6 µg/mL: MIC (Pseudomonas aeruginosa; BBRI Pa-No. 3, 1449VA, Table 7, read-out: MIC) | MIC (Pseudomonas aeruginosa; BBRI Pa-No. 5, N4865KC, Table 7, read-out: MIC) | MIC (Pseudomonas aeruginosa; BBRI Pa-No. 14, Table 7, read-out: MIC) | MIC (Pseudomonas aeruginosa; BBRI Pa-No. 25, Table 7, read-out: MIC) | MIC (Pseudomonas aeruginosa; BBRI Pa-No. 26, Ps32, Table 7, read-out: MIC) | MIC (Pseudomonas aeruginosa; BBRI Pa-No. 31, Table 7, read-out: MIC) | MIC (Pseudomonas aeruginosa; BBRI Pa-No. 39, Table 7, read-out: MIC) | MIC (Pseudomonas aeruginosa; BBRI Pa-No. 59, Table 7, read-out: MIC) | MIC (Pseudomonas aeruginosa; BBRI Pa-No. 65, Table 7, read-out: MIC)
0.4 µg/mL: MIC (Pseudomonas aeruginosa; BBRI Pa-No. 36, Table 7, read-out: MIC)
3.1 µg/mL: MIC (Pseudomonas aeruginosa; BBRI Pa-No. 2, VA, Table 7, read-out: MIC) | MIC (Pseudomonas aeruginosa; BBRI Pa-No. 4, H9 D113, Table 7, read-out: MIC) | MIC (Pseudomonas aeruginosa; BBRI Pa-No. 7, Table 7, read-out: MIC) | MIC (Pseudomonas aeruginosa; BBRI Pa-No. 8, Table 7, read-out: MIC) | MIC (Pseudomonas aeruginosa; BBRI Pa-No. 9, Yale, Table 7, read-out: MIC) | MIC (Pseudomonas aeruginosa; BBRI Pa-No. 11, Table 7, read-out: MIC) | MIC (Pseudomonas aeruginosa; BBRI Pa-No. 21, Table 7, read-out: MIC) | MIC (Pseudomonas aeruginosa; BBRI Pa-No. 23, Table 7, read-out: MIC) | MIC (Pseudomonas aeruginosa; BBRI Pa-No. 29, D122, Table 7, read-out: MIC) | MIC (Pseudomonas aeruginosa; BBRI Pa-No. 32, Table 7, read-out: MIC) | MIC (Pseudomonas aeruginosa; BBRI Pa-No. 34, Table 7, read-out: MIC) | MIC (Pseudomonas aeruginosa; BBRI Pa-No. 37, Table 7, read-out: MIC) | MIC (Pseudomonas aeruginosa; BBRI Pa-No. 41, Table 7, read-out: MIC) | MIC (Pseudomonas aeruginosa; BBRI Pa-No. 44 (unnamed strain), Table 7, read-out: MIC) | MIC (Pseudomonas aeruginosa; BBRI Pa-No. 51, Table 7, read-out: MIC) | MIC (Pseudomonas aeruginosa; BBRI Pa-No. 52, Table 7, read-out: MIC) | MIC (Pseudomonas aeruginosa; BBRI Pa-No. 53, Table 7, read-out: MIC) | MIC (Pseudomonas aeruginosa; BBRI Pa-No. 54, Table 7, read-out: MIC) | MIC (Pseudomonas aeruginosa; BBRI Pa-No. 55, Table 7, read-out: MIC) | MIC (Pseudomonas aeruginosa; BBRI Pa-No. 56, Table 7, read-out: MIC) | MIC (Pseudomonas aeruginosa; BBRI Pa-No. 60, Table 7, read-out: MIC) | MIC (Pseudomonas aeruginosa; BBRI Pa-No. 61, Table 7, read-out: MIC) | MIC (Pseudomonas aeruginosa; BBRI Pa-No. 64, Table 7, read-out: MIC) | MIC (Pseudomonas aeruginosa; BBRI Pa-No. 66, Table 7, read-out: MIC) | MIC (Pseudomonas aeruginosa; BBRI Pa-No. 70, K-Ps102(CR-102), Table 7, read-out: MIC) | MIC (Pseudomonas aeruginosa; GN315, BBRI Pa-No. 27, GN315, Table 7, read-out: MIC)
25 µg/mL: MIC (Pseudomonas aeruginosa; BBRI Pa-No. 6, No. 5, Table 7, read-out: MIC) | MIC (Pseudomonas aeruginosa; BBRI Pa-No. 17, H6 D114, Table 7, read-out: MIC) | MIC (Pseudomonas aeruginosa; BBRI Pa-No. 42, Table 7, read-out: MIC)
12.5 µg/mL: MIC (Pseudomonas aeruginosa; BBRI Pa-No. 1, D15, Table 7, read-out: MIC) | MIC (Pseudomonas aeruginosa; BBRI Pa-No. 62, Table 7, read-out: MIC)
4.3 µg/mL: MIC (Pseudomonas aeruginosa; 61 strains of Pseudomonas aeruginosa, Table 7, read-out: Geometric Mean of MIC)
> 100 µg/mL: MIC (Pseudomonas aeruginosa; BBRI Pa-No. 10, Table 7, read-out: MIC) | MIC (Pseudomonas aeruginosa; BBRI Pa-No. 24, Table 7, read-out: MIC)
50 µg/mL: MIC (Pseudomonas aeruginosa; BBRI Pa-No. 18, H8 D121, Table 7, read-out: MIC)
6.3 µg/mL: MIC (Pseudomonas aeruginosa; BBRI Pa-No. 12, Table 7, read-out: MIC) | MIC (Pseudomonas aeruginosa; BBRI Pa-No. 15, Table 7, read-out: MIC) | MIC (Pseudomonas aeruginosa; BBRI Pa-No. 20, Table 7, read-out: MIC) | MIC (Pseudomonas aeruginosa; BBRI Pa-No. 28, CPH1C527/72, Table 7, read-out: MIC) | MIC (Pseudomonas aeruginosa; BBRI Pa-No. 30, Table 7, read-out: MIC) | MIC (Pseudomonas aeruginosa; BBRI Pa-No. 33, Table 7, read-out: MIC) | MIC (Pseudomonas aeruginosa; BBRI Pa-No. 35, Table 7, read-out: MIC) | MIC (Pseudomonas aeruginosa; BBRI Pa-No. 38, Table 7, read-out: MIC) | MIC (Pseudomonas aeruginosa; BBRI Pa-No. 43, Table 7, read-out: MIC) | MIC (Pseudomonas aeruginosa; BBRI Pa-No. 57, Table 7, read-out: MIC) | MIC (Pseudomonas aeruginosa; BBRI Pa-No. 58, Table 7, read-out: MIC) | MIC (Pseudomonas aeruginosa; BBRI Pa-No. 67, Table 7, read-out: MIC) | MIC (Pseudomonas aeruginosa; BBRI Pa-No. 68, Table 7, read-out: MIC) | MIC (Pseudomonas aeruginosa; BBRI Pa-No. 69, Table 7, read-out: MIC) | MIC (Pseudomonas aeruginosa; GN4925, BBRI Pa-No. 44, GN4925, Table 7, read-out: MIC)
544%: Rel. Act. (SBPC=100%) (Pseudomonas aeruginosa; 61 strains of Pseudomonas aeruginosa, Table 7)
0.8 µg/mL: MIC (Pseudomonas aeruginosa; BBRI Pa-No. 16, No. 130, Table 7, read-out: MIC) | MIC (Pseudomonas aeruginosa; BBRI Pa-No. 19, Table 7, read-out: MIC)
